Values of other authors, collected in US8128952B2, “Ligand-mediated controlled drug delivery” (Clemson University Research Foundation, priority 2005, dated 2012).

Molecular target: human growth hormone (hGH) (Homo sapiens, UniProt P01241)
Settings: interaction between hGH and Zn-EDTA

Chain of human growth hormone (hGH) (P01241 27-217): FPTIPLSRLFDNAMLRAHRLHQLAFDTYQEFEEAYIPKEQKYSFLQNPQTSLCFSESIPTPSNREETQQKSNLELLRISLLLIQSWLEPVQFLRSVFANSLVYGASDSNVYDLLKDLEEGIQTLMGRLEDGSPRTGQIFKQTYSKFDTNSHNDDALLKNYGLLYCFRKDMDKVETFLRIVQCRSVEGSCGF

## O=C([O-])CN(CCN(CC(=O)O)CC(=O)O)CC(=O)[O-].[Zn+2] [Zn-EDTA, Zn-ethylenediamine tetraacetic acid]
  Kd: 380 µM
